Patent publication US7229966B2, “Compositions and methods for enhanced mucosal delivery of Y2 receptor-binding peptides and methods for treating and preventing obesity” (Nastech Pharmaceutical Company Inc., priority 2002, dated 2007)
Read-outs that look alike come from different tables or passages of the source.

Key:
ciliary motility = details: cited from earlier work
aminopeptidases = details: cited from earlier work
[1] = aqueous solution at physiologic pH; cited from earlier work
[2] = 0.5 mg/mL in phosphate buffer, pH 7.4; vortex mixing 1 min; cited from earlier work
[3] = anesthetized rats, cited from earlier work

2-alkyl-4-hydroxyquinolines [pyo compound]
concentration producing ciliostasis / inhibiting ciliary motility (ciliary motility): 50 µg/mL

CC(C(=O)[O-])c1ccc(NC(=O)c2ccccc2O)cc1.[Na+] (stereo not drawn) [Sodium Salt of Carrier B, Sodium 2-(4-(N-salicyloyl)aminophenyl)propionate]
melting point: 236 to 238 °C

CC(C)CC(N)B(O)O (stereo not drawn) [boro-leucine]
effectiveness in enzyme inhibition relative to bestatin (aminopeptidases): more than 100 times | effectiveness in enzyme inhibition relative to puromycin (aminopeptidases): more than 1000 times

CCN(CC)/[N+]([O-])=N/O.CCNCC [diethylamine/NO]
NO release time [1]: < 3 min

NCCN(CCN)/[N+]([O-])=N/O [diethylenetriamine/NO (DETANO), diethylenetriamine/NO]
NO release time [1]: approximately 20 hours

human growth hormone (hGH): peptide hormone human growth hormone
drug precipitated as insoluble aggregates [2]: 67% | nasal bioavailability ([3]; with N-acetyl-L-cysteine (ACS)): 12.2% | nasal bioavailability ([3]; without N-acetyl-L-cysteine): 7.5%
